Source: PMC11124940, “Sweeteners Show a Plasticizing Effect on PVP K30—A Solution for the Hot-Melt Extrusion of Fixed-Dose Amorphous Curcumin-Hesperetin Solid Dispersions” (Pharmaceutics, 2024)
Values after ≈ are worked out from the molar mass of the structure shown. Like-named read-outs stand apart in the source and are kept apart here.

Experiments:
[1] = Apparent solubility study (24 h, 25 °C, HPLC); format: physicochemical
Procedure: (§1) The injection volume differed depending on the assay. […] The duration of the run was 10 min.
Phosphate buffer at pH 6.8 was prepared as follows: 250 mL of 0.2 N potassium dihydrogen phosphate solution was placed in a 1000 mL volumetric flask, and then 112 mL of 0.2 N sodium hydroxide solution was added. The volume was made up to 1000 mL with purified water. Hydrochloric acid solution pH 1.2 was prepared from the analytically weighed amount following the manufacturer’s (Alfachem, Poznań, Poland) recommendations.
An excess amount of powder (corresponding to 6 mg of each active substance) was placed in a 10 mL glass tube. Then, 2.0 mL of phosphate buffer (pH 6.8) or HCl solution (pH 1.2) was added and stirred at 100 rpm at room temperature (25 ± 0.1 °C) for 24 h.

[2] = PAMPA GIT permeability assay; format: in vitro ADME; conditions: GIT model, donor pH ≈6.8, 4 h, 37 °C
Procedure: as §1

[3] = PAMPA, 4 h, pH 7.4
Procedure: Concentrations of curcumin and hesperetin in samples collected during solubility, dissolution, and permeability studies were determined using HPLC with the DAD detector (HPLC-DAD). Shimadzu Nexera (Shimadzu Corp., Kyoto, Japan) equipped with an SCL-40 system controller, a DGU-403 degassing unit, an LC-40B XR solvent delivery module, a SIL-40C autosampler, a CTO-40C column oven, and an SPD-M40 photodiode array detector were employed in this investigation. For the stationary phase, a Dr. Maisch ReproSil-Pur Basic-C18 100 Å column with 5 µm particle size and 250 × 4.60 mm (Dr. Maisch, Ammerbuch-Entringen, Germany) was used. The mobile phase was HPLC-grade methanol:0.1% acetic acid (80:20 v/v). The mobile phase was vacuum filtered through a 0.45 µm nylon filter (Phenomenex, Torrance, CA, USA). The experimental conditions were as follows: a 1.0 mL/min flow rate, a wavelength of 420 nm for curcumin and 288 nm for hesperetin, and a column temperature of 30 °C. The injection volume differed depending on the assay. For the solubility study, it was 2 µL, whereas for the dissolution and permeability assays, it was 10 µL. […]
In vitro, gastrointestinal (GIT) and blood–brain barrier (BBB) permeability was studied using the Parallel Artificial Membrane Permeability Assay (PAMPA) models. […] The results are expressed as a concentration of the compound in the acceptor solution.

Structure (SMILES)	solubility at 24 h ([1]; HCl solution, simulated gastric fluid, thermodynamic from solid, pH 1.2 HCl, read-out: Hesperetin Concentration (apparent solubility)) [µg/mL]	solubility at 24 h ([1]; aqueous buffer, thermodynamic from solid, pH 6.8 phosphate buffer, read-out: Hesperetin Concentration (apparent solubility)) [µg/mL]	Hesperetin Concentration in the acceptor solution [2]	Hesperetin Concentration in the acceptor solution [3]	solubility at 24 h ([1]; HCl solution, pH 1.2 HCl, read-out: Curcumin Concentration (apparent solubility)) [µg/mL]	solubility at 24 h ([1]; aqueous buffer, thermodynamic from solid, pH 6.8 phosphate buffer, read-out: Curcumin Concentration (apparent solubility)) [µg/mL]	Curcumin Concentration in the acceptor solution [2]	Curcumin Concentration in the acceptor solution [3]
COc1ccc([C@@H]2CC(=O)c3c(O)cc(O)cc3O2)cc1O [Hesperetin]	4 ± 1 (≈ 13.2 µM)	5 ± 1 (≈ 16.5 µM)	2.58 × 10^−5 ± 6.16 × 10^−6 c mg/mL	3.89 × 10^−5 ± 1.66 × 10^−5 c mg/mL				
COc1cc(/C=C/C(=O)CC(=O)/C=C/c2ccc(O)c(OC)c2)ccc1O [Curcumin]					0.1 ± 0.01 (≈ 0.271 µM)	0.14 ± 0.02 (≈ 0.38 µM)	3.34 × 10^−6 ± 1.94 × 10^−6 c mg/mL	1.86 × 10^−5 ± 2.48 × 10^−6 c mg/mL
